Laboratory results taken from patent US8735151B2, “Spontaneously contracting fish cell aggregates, use thereof and method for the production thereof” (Fraunhofer-Gesellschaft zur Foerderung der Angewandten …, priority 2009, dated 2014).

Key:
[1] = system: spontaneously contracting cell aggregates (certain channels in the heart: potassium and calcium channels); test: Drug tests on the cell aggregates (electrophysiology, intracellular derivation with a sharp electrode); format: cell-based, Rainbow trouts (Oncorhynchus mykiss, Walbaum); conditions: for reaction of the aggregates on drugs which influence certain channels in the heart: FIG. 10; for recovery of the aggregates after the drug testing: medium change
Procedure: FIG. 10 Effect of cardiac drugs on the cell aggregates; A: isoproterenol (calcium channel agonist); B: rilmakalim ([…])
The electrophysiology is important for the use of the cell aggregates as a test system in pharmacology. Measurement of the electric activity was performed by means of extracellular measurement via MEA (multi-electrode array) and intracellular measurement via a sharp electrode.
The properties of action potentials and the examination on certain channels (potassium and calcium channels) were carried out with a sharp electrode.
The reaction of the aggregates on drugs which influence certain channels in the heart is of importance for the functionality as a test model. […] Examinations were carried out with isoproterenol (calcium channel agonist) (FIG. 10A) and rilmakalim ([…]).

[2] = system: spontaneously contracting cell aggregate; test: Reaction of cell aggregates on the addition of potassium (light microscope, video recordings); format: cell-based, Rainbow trouts (Oncorhynchus mykiss, Walbaum)
Procedure: The reaction of a cell aggregate which had already contracted for 16 days in culture on potassium could be tested in another experiment. It was shown under a light microscope (Axiovert 40C; Zeiss, Germany) with video recordings that the beating frequency of this aggregate increased from 66 beats per minute to 72 beats per minute over a period of 10 minutes. After these 10 minutes, a 1.75 mM potassium chloride solution was added. […] After removing the medium containing the 1.75 mM KCl solution and replacing it with fresh DMEM/20% FBS, the cell aggregate began to beat again after 2 minutes. However, the beating frequency was at first only 16 beats per minute which recovered to the original frequency within the next three days.

Row | Compound | reaction of the aggregates on drugs which influence certain channels in the heart [1] | recovery of the aggregates after the drug testing [1] | contraction speed of the aggregate after adding the KCl solution ([2]; 1.75 mM potassium chloride solution, aggregate 16 days contracting in culture, for 6 seconds after addition, baseline 66-72 beats per minute) | time after addition until contraction stopped ([2]; 1.75 mM potassium chloride solution, no more contractions observed) [s] | beating frequency at first after medium replacement ([2]; after removal of 1.75 mM KCl, recovered to the original frequency within the next three days) [beats per minute] | time until the cell aggregate began to beat again after replacing medium ([2]; after removing medium containing 1.75 mM KCl and replacing with fresh DMEM/20% FBS) [min]
1 | CC(C)NCC(O)c1ccc(O)c(O)c1 (centres unmarked) [isoproterenol] | in the same manner as the human heart | recover after the drug testing by means of a medium change |  |  |  | 
2 | [Cl-].[K+] [potassium chloride] |  |  | triple the speed as before | 10 | 16 | 2
3 | CC1(C)Oc2ccc(S(=O)(=O)c3ccccc3)cc2[C@@H](N2CCCC2=O)[C@@H]1O [rilmakalim] | in the same manner as the human heart | recover after the drug testing by means of a medium change |  |  |  | 
